Where a name gives a salt, the structure may show the parent alone.
Columns and labels:
femoral arteries = assay: In vitro contraction of dog femoral arteries (agonist concentration/effect curve); settings: Canis lupus familiaris, ARTERY; for EC50: femoral artery rings, dog, 37° C.; for Emax: maximum effect relative to maximum effect caused by 100 mM KCl, read-out: Max (% KCl)
Method: (§1) In vitro study on the femoral arteries and saphenous veins of dogs
(§2) The technique used is based on that described by Fowler et at. (J. Pharmacol. Exp. Ther., 229, 712-718, 1984). Male or female mongrel dogs weighing approximately 15-25 kg were used as organ sources. The animals are anesthetized with pentrobarbital (30 mg/kg, intravenously). Incisions are made in the legs and the vessels are withdrawn. They are placed in Krebs-Ringer liquid (NaCl 118 mM, NaHCO3 25 mM, Glucose 10 mM, KCl 4.7 mM, CaCl2 1.25 mM, MgSO4 1.19 mM, KH2 PO4 1.14 mM) at room temperature and while bubbling with carbogen (95% O2, 5% CO2). These vessels are then carefully freed from their fat, then cut into rings with a width of 2 mm and mounted under a base tension of 4 g (femoral arteries) or 1 g (saphenous veins) in vessels thermostatically controlled at 37° C. containing Krebs-Ringer liquid through which carbogen is constantly bubbling. A lower hook constitutes the set point whereas the upper hook is connected to an isometric force sensor. The tension variations are digitized, stored on disk and processed by a computer system. After mounting, the organs, are left at rest for 90 minutes, rinsings being carried out every 30 min. After readjusting the base tension, a contraction is caused by a single dose of KCl (100 mM). After stabilisation, washing and returning to the base line, a contraction is provoked by a single dose of phenylephrine (submaximal concentration) in order to regularize the following contractions. After washing and returning to the base line, a concentration/effect curve is produced by addition of cumulative doses of agonist (the spacing between the doses is a half-log). This experiment makes it possible to calculate the 50% effective concentration (EC5.sbsb.0) in the following way: the tension values are first converted to percentages with respect to the maximum effect caused by 100 mM of KCl. This EC5.sbsb.0 is determined by non-linear regression by the Simplex method (M. S. Caceci, Byte, 340-362, 1984), calculated according to the model of the law of mass action of L. Michaelis and M. L. Menten (Biochem. Zeitschrifft, 49, 333-369, 1913). E=(Emax*C^n)(EC^n +C^n) where E=effect, Emax=maximum effect, C=concentration, EC=EC5.sbsb.0 and n=Hill number.

saphenous veins = assay: In vitro contraction of dog saphenous veins (agonist concentration/effect curve); settings: Canis lupus familiaris, VEIN; for Emax: maximum effect relative to maximum effect caused by 100 mM KCl, read-out: Max (% KCl); for EC50: saphenous vein rings, dog, 37° C.
Method: as §1, §2

1 or 2 -adrenergic = assay: In vivo study on amyelous rats (arterial pressure increase, with or without prazosin or yohimbine); parameters: species or system Male Sprague-Dawley rats; settings: for Ratio C20 treated/C20 control: pretreated with yohimbine (1 mg/kg); for ED (20 mmHg): Rattus norvegicus, iv, Control (no antagonist), increasing cumulative doses every 20 seconds, tertatolol pretreatment, read-out: C20 (concentration which increases the pressure by 20 mmHg)
Description: In vivo study on AMYELOUS RATS
Male Sprague-Dawley rats (300-400 g) are anesthatized with ether. A cannula is inserted in the trachea, the spinal cord is destroyed using a steel rod and the animal is immediately placed under artificial respiration. The vagus nerves are sectioned. The carotid arteries are ligatured and a catheter is placed in one and is used to record the arterial pressure. Three other catheters are placed in the jugular veins and the vein of the penis and are used for injections. The temperature of the animals is maintained at 36° C. The animal is pretreated with an injection of tertatolol ([…]). The animal is also pretreated 10 minutes afterwards with prazosin ([…]) or yohimbine (1 mg/kg) when it is wished to determine the 1 or 2 -adrenergic properties of the product. Ten minutes later, increasing cumulative doses of product are injected every 20 seconds. The medal pressure variations are detected using a P23XL Statham pressure cell and are recorded. The pressure values are expressed in mmHg. This experiment makes it possible to calculate the concentration which increases the pressure by 20 mmHg (C2.sbsb.0) by non-linear regression according to the model of the Michaelis and Menten mass action law as described above. The maximum effect obtained is then converted to a percentage with respect to the maximum effect caused by phenylephrine. The 1 or 2 -adrenergic components of the product are estimated using the ratio of the C2.sbsb.0 values obtained in the presence of prazosin or of yohimbine to the values obtained in the absence of these antagonists. In amyelous rats, the products of the invention induce hypertensions which are inhibited more by prazosin than by yohimbine.

| SMILES | EC50 (femoral arteries) [nM] | EC50 (saphenous veins) [nM] | Emax (femoral arteries) [%] | Emax (saphenous veins) [%] | Ratio C20 treated/C20 control (1 or 2 -adrenergic) | ED (20 mmHg) (1 or 2 -adrenergic) [µg/kg] |
| --- | --- | --- | --- | --- | --- | --- |
| CCOc1ccc(OC)c2c1CCC1(CNC=N1)C2 (stereo not drawn) [Example 2, Spiro[(1,3-diazacyclopent-1-ene)-5,2'-(5'-ethoxy-8'-methoxy-1',2',3',4'-tetrahydronaphthalene)]fumarate] | – | – | – | – | 5 | 0.06 |
| CCOc1ccc(OCC)c2c1CCC1(CNC=N1)C2 (stereo not drawn) [Example 3, Spiro[(1,3-diazacyclopent-1-ene)-5,2'-(5',8'-diethoxy-1',2',3',4'-tetrahydronaphthalene) fumarate] | – | – | – | – | 8 | 0.6 |

The next lines start with results.

| EC50 (femoral arteries) [nM] | EC50 (saphenous veins) [nM] | SMILES | Emax (femoral arteries) [%] | Emax (saphenous veins) [%] | Ratio C20 treated/C20 control (1 or 2 -adrenergic) | ED (20 mmHg) (1 or 2 -adrenergic) [µg/kg] |
| --- | --- | --- | --- | --- | --- | --- |
| 30 | 120 | COc1ccc(OC)c2c1CCC1(CNC=N1)C2 (single isomer, unassigned) [Example 7, Spiro[(1,3-diazacyclopent-1-ene)-5,2'-(5',8'-dimethoxy-1',2',3',4'-tetrahydro-naphthalene)]fumarate, isomer α] | 95 | 109 | – | – |
| 160 | 200 | COc1ccc(OC)c2c1CCC1(CNC=N1)C2 (stereo not drawn) [Example 1, Spiro[(1,3-diazacyclopent-1-ene)-5,2'-(5',8'-dimethoxy-1',2',3',4'-tetrahydronaphthalene)]fumarate] | 72 | 100 | 11 | – |
| 1500 | 6400 | COc1cccc2c1CCC1(CNC=N1)C2 (stereo not drawn) [Example 5, Spiro[(1,3-diazacyclopent-1-ene)-5,2'-(5'-methoxy-1',2',3',4'-tetrahydronaphthalene)]] | 93 | 100 | – | – |
| 80 | 800 | COc1ccc(SC)c2c1CC1(CC2)CNC=N1 (stereo not drawn) [Example 6, Spiro[(1,3-diazacyclopent-1-ene)-5,2'-(5'-methylthio-8'-methoxy-1',2',3',4'-tetrahydronaphthalene)]fumarate] | 85 | 98 | – | – |

— patent US5464859A, “Benzospiroalkene derivatives” (Adir et Compagnie, priority 1993, dated 1995)
